Test results: patent US20030144292A1, “Carbocyclic side chain containing, N-substituted metalloprotease inhibitors” (priority 2000, published 2003)

How the values were obtained:
Format in all cases: in vivo
[1] = test system: patient having deep corneal abrasion; experiment: Example C: saline-based eye drop for deep corneal abrasion; conditions: 5% w/w drop to each eye twice a day
Text: A saline-based composition for local administration, according to the present invention, is made comprising:
A patient having deep corneal abrasion applies the drop to each eye twice a day.

[2] = test system: human subject with a premetastatic tumor; experiment: Example G: parenteral suspension injected next to a premetastatic tumor; conditions: 100 mg/mL suspension, about 2.0 mL injected beside the tumor twice daily, after 30 days
Method: A composition for parenteral administration is made comprising:
The above ingredients are mixed, forming a suspension. Approximately 2.0 mL of the suspension is administered, via injection, to a human subject with a premetastatic tumor. The injection site juxtaposes the tumor. This dosage is repeated twice daily, for approximately 30 days.

[3] = test system: patient suffering from chemical burns; experiment: Example D: topical composition for chemical burns; conditions: 0.20% w/v topical composition at each dressing change (b.i.d.)
Text: A topical composition for local administration, according to the present invention, is made comprising:
A patient suffering from chemical burns applies the composition at each dressing change (b.i.d.).

[4] = test system: human subject suffering from osteoarthritis; experiment: Example B: oral capsule treatment of osteoarthritis; conditions: capsule containing 70 mg daily for 5 years
Method: A capsule for oral administration, according to the present invention, is made comprising:
A human subject weighing 90 kg (198 lbs.), suffering from osteoarthritis, is treated by a method of this invention. Specifically, for 5 years, a capsule containing 70 mg of the compound of Example 3 is administered daily to said subject.

asthma sufferer = experiment: Example E: inhalation aerosol for asthma; conditions: 5.0% w/v aerosol, 0.01 mL sprayed into the mouth while inhaling
[5] = test system: human subject suffering from rheumatoid arthritis; experiment: Example A: oral tablet treatment of rheumatoid arthritis; conditions: tablet with 15 mg compound, three tablets per day orally for 2 years
Method: A tablet composition for oral administration, according to the present invention, is made comprising:
A human subject weighing 60 kg (132 lbs), suffering from rheumatoid arthritis, is treated by a method of this invention. Specifically, for 2 years, a regimen of three tablets per day is administered orally to said subject.

COc1ccc(-c2ccc(S(=O)(=O)N(C)C(C(=O)O)C3(SC)CCCC4(C3)OCCO4)cc2)cc1 (centres unmarked) [Example 10, (7-methylthio-1,4-Dioxaspiro[4.5]dec-7-yl)-N-{[4′-Methoxy-(1,1′-biphenyl)-4-yl]-sulfonyl}-N-methylamino-acetic Acid]
healing of corneal abrasion [1]: speeded | visual sequelae [1]: no visual sequelae

COc1ccc(-c2ccc(S(=O)(=O)N(C)[C@@H](C(=O)O)C3CCC4(CC3)OCCCO4)cc2)cc1 [Example 2, (R)-N-{[4′-methoxy-(1,1′-biphenyl)-4-yl]-sulfonyl}-N-methylamino-(1,5-dioxa-spiro[5.5]undec-9-yl)-acetic Acid]
symptoms of the disease [2]: subside

COc1ccc(-c2ccc(S(=O)(=O)N(C)C(C(=O)O)C3CCC(N4CCOC4=O)CC3)cc2)cc1 (centres unmarked) [Example 21, N-{[4′-Methoxy-(1,1′-biphenyl)-4-yl]-sulfonyl-N-methylamino}-[4-(oxazolidin-2-one-3N-yl)-cyclohexan-1-yl]-acetic Acid]
scarring [3]: substantially diminished

CN([C@@H](C(=O)O)C1CCC2(CC1)OCCCO2)S(=O)(=O)c1ccc(-c2ccc(Br)cc2)cc1 [Example 3, (R)-N-{[4′-bromo-(1,1′-biphenyl)-4-yl]-sulfonyl}-N-methylamino-(1,5-dioxa-spiro[5.5]undec-9-yl)-acetic Acid]
advancement of erosion/fibrillation of the articular cartilage (x-ray, arthroscopy and/or MRI) [4]: no further advancement

COc1ccc(-c2ccc(S(=O)(=O)N(C)C(C(=O)O)C3CCC(N4CCCC4=O)CC3)cc2)cc1 (centres unmarked) [Example 19, N-{[4′-Methoxy-(1,1′-biphenyl)-4-yl]-sulfonyl-N-methylamino}-[4-(2-oxopyrrolidin-1N-yl)-cyclohexan-1-yl]-acetic Acid]
asthma symptoms (asthma sufferer): diminished

COc1ccc(-c2ccc(S(=O)(=O)N(C)C(C(=O)O)C3CCC(O)CC3)cc2)cc1 (centres unmarked) [Example 1, N-{[4′-Methoxy-(1,1′-biphenyl)-4-yl]-sulfonyl-N-methyl-amino}-(4-hydroxycyclohexan-1-yl)-acetic Acid]
inflammation at end of treatment period [5]: reduced inflammation | mobility and pain at end of treatment period [5]: improved mobility without concomitant pain
